# Test results taken from publication PMC5063977 (The Journal of Biological Chemistry, 2016).
# How the values were obtained:
# RAMP3-CLR (AM2 receptor) = molecular target: T1, RAMP3-CLR (AM2 receptor) (Homo sapiens, UniProt O60896+Q16602); test: S. cerevisiae growth assay, GPA1/Gαs chimera, RAMP3 + CLR; format: cell-based; details: percentage of yeast strain MMY11 (lacking GPA1); 20 h; mean ± S.E., n = 8
# T1 construct: FLAG; expressed in transfected cells; host or cells: HEK-293 or HEK-293S cells, transient transfection, 1:1 RAMP:CLR
# T1 sequence (Q16602 23-461): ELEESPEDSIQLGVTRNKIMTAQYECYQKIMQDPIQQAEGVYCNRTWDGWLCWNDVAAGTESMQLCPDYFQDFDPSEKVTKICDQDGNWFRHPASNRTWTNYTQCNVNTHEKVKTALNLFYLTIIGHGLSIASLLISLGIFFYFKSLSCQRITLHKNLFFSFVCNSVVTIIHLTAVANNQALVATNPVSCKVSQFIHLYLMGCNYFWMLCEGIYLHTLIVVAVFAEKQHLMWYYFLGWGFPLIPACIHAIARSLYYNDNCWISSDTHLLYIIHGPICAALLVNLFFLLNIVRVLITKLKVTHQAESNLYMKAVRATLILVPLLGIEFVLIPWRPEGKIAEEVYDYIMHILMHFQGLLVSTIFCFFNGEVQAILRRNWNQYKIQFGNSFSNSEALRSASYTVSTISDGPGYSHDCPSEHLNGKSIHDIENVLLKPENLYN
# T1 sequence (O60896 24-148): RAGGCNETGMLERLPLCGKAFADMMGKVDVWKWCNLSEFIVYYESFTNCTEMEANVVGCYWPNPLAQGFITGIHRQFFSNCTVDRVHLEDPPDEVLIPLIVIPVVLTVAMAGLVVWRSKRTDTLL
# Experimental: FIGURE 1. […] Reporter gene activity was determined following 20 h of stimulation with each ligand. Data are expressed as a percentage of the maximum response observed in yeast strain MMY11 (lacking GPA1) and are means ± S.E. of n individual data sets. […] Data were determined as statistically different from the cognate ligand for each receptor (*, p < 0.05; **, p < 0.01; ***, p < 0.001) using a one-way ANOVA with Bonferroni's post-test.
# General yeast procedures were performed as described previously ([22], [24]). The human CLR was introduced into yeast cells under the control of the PGK promoter using a plasmid containing ura3 (pDT-PGK). […] Receptor signaling was measured using the yeast growth assay as described previously ([24]). […] A fluorescein signal was detected as an increase in fluorescence (excitation wavelength = 485 nm, emission wavelength = 535 nm) as a measure of growth. Different concentrations of ligand (0.01 nM–100 μM) were assayed using 96-well plates, and fluorescence was detected using a Tecan Infinite M200 microplate reader (Tecan Ultra Evolution, Reading, UK) or a Mithras LB 940 microplate reader (Berthold Technologies, Harpenden, UK) for 20 h.
# Data analysis for cAMP assays was performed in GraphPad Prism 6.0f (San Diego, CA). […] To quantitate the ligand-dependent response in the yeast system, a strain lacking GPA1 (MMY11), grown in rich medium, was used as a standard ([72]). […]
# [1] = molecular target: T2, RAMP1-CLR (CGRP receptor) (Homo sapiens, UniProt O60894+Q16602); test: S. cerevisiae growth assay, GPA1/Gαq chimera, RAMP1 + CLR; format: cell-based; details: percentage of yeast strain MMY11 (lacking GPA1); 24-h; mean ± S.E., n = 7
# T2 construct: FLAG; expressed in transfected cells; host or cells: HEK-293 or HEK-293S cells, transient transfection, 1:1 RAMP:CLR
# T2 sequence (Q16602 23-461): as the sequence (Q16602 23-461) above
# T2 sequence (O60894 27-148): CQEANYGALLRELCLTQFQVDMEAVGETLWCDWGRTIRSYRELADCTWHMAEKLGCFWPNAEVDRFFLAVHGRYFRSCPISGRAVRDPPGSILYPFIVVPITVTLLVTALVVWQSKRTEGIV
# Experimental: FIGURE 7. […] Reporter gene activity was determined following 24-h stimulation. All data are expressed as percentage of the maximum response observed in yeast strain MMY11 and are means ± S.E. of n individual data sets. D, Bar chart showing the efficacy of each ligand for each RAMP-CLR combination at the Gαq chimera determined via application of the operational model of receptor agonism (Ref. [34] and Table 1). Data were determined as statistically different from the cognate ligand for each receptor (***, p < 0.001; ****, p < 0.0001) using one-way ANOVA with Bonferroni's post-test. E, signaling bias plots were calculated as ΔΔ(τ/Ka) values on a logarithmic scale for each ligand and for each chimera G protein for the three individual RAMP-CLR complexes.
# General yeast procedures were performed as described previously ([22], [24]). […] Receptor signaling was measured using the yeast growth assay as described previously ([24]). […] A fluorescein signal was detected as an increase in fluorescence (excitation wavelength = 485 nm, emission wavelength = 535 nm) as a measure of growth. Different concentrations of ligand (0.01 nM–100 μM) were assayed using 96-well plates, and fluorescence was detected using a Tecan Infinite M200 microplate reader (Tecan Ultra Evolution, Reading, UK) or a Mithras LB 940 microplate reader (Berthold Technologies, Harpenden, UK) for 20 h. […]
smiles,measurement,setting,value
"CC[C@H](C)[C@H](NC(=O)[C@H](CCC(N)=O)NC(=O)[C@H](Cc1c[nH]cn1)NC(=O)[C@H](C)NC(=O)[C@H](CC(C)C)NC(=O)[C@H](CCCCN)NC(=O)[C@H](CCC(N)=O)NC(=O)[C@@H](NC(=O)[C@@H](NC(=O)[C@@H]1CSSC[C@H](NC(=O)CNC(=O)[C@H](Cc2ccccc2)NC(=O)[C@H](CO)NC(=O)[C@H](CCCNC(=N)N)NC(=O)[C@H](CC(C)C)NC(=O)CNC(=O)[C@H](CCC(N)=O)NC(=O)[C@H](Cc2ccccc2)NC(=O)[C@H](CC(N)=O)NC(=O)[C@H](CC(N)=O)NC(=O)[C@H](CCSC)NC(=O)[C@H](CO)NC(=O)[C@H](CCC(N)=O)NC(=O)[C@H](CCCNC(=N)N)NC(=O)[C@@H](N)Cc2ccc(O)cc2)C(=O)N[C@@H](CCCNC(=N)N)C(=O)N[C@@H](Cc2ccccc2)C(=O)NCC(=O)N[C@@H]([C@@H](C)O)C(=O)N1)[C@@H](C)O)C(C)C)C(=O)N[C@@H](Cc1ccc(O)cc1)C(=O)N[C@@H](CCC(N)=O)C(=O)N[C@@H](Cc1ccccc1)C(=O)N[C@H](C(=O)N[C@@H](CC(=O)O)C(=O)N[C@@H](CCCCN)C(=O)N[C@@H](CC(=O)O)C(=O)N[C@@H](CCCCN)C(=O)N[C@@H](CC(=O)O)C(=O)N[C@@H](CC(N)=O)C(=O)N[C@H](C(=O)N[C@@H](C)C(=O)N1CCC[C@H]1C(=O)N[C@@H](CCCNC(=N)N)C(=O)N[C@@H](CO)C(=O)N[C@@H](CCCCN)C(=O)N[C@H](C(=O)N[C@@H](CO)C(=O)N1CCC[C@H]1C(=O)N[C@@H](CCC(N)=O)C(=O)NCC(=O)N[C@@H](Cc1ccc(O)cc1)C(N)=O)[C@@H](C)CC)C(C)C)[C@@H](C)O [AM, adrenomedullin]",Emax,RAMP3-CLR (AM2 receptor),25.5 ± 3.6%
same,Emax,[1],14.1 ± 1.2%
